The values that follow are results of earlier work, collected in patent US20180140592A1, “5-CHLORO-4-HYDROXY-1-METHYL-2-OXO-N-PHENYL-1,2-DIHYDROQUINOLINE-3-CARBOXAMIDE, SALTS AND USES THEREOF” (Teva Pharmaceutical Industries, Ltd., priority 2010, published 2018).

The structures appear in SMILES notation.

Series [1] concerns experimental inflammatory/autoimmune animal models. The note with it: EAE, DSS induced colitis, NOD mice, EAN, SLE and others.
The test system of a further series is relapsing MS. The note with it: Polman et al. 2005.
Series [2] has as its system acute experimental autoimmune encephalomyelitis (aEAE) model. The note with it: U.S. Pat. No. 6,077,851.

On to `CCN(C(=O)c1c(O)c2c(Cl)cccc2n(C)c1=O)c1ccccc1` [Laquinimod, N-ethyl-N-phenyl-1,2-dihydro-4-hydroxy-5-chloro-1-methyl-2-oxoquinoline-3-carboxamide], for which the “therapeutic effect in animal models” value in series [1] was “demonstrated therapeutic effect”. Moreover, the “development of active MRI lesions” value in the series on relapsing MS is on record as “reduce development of active MRI lesions”. The “efficacy in the aEAE model” value in series [2] is on record as “effective”.
